Measured values from patent US6528456B2, “Herbicidal 2-pyrazolyl-6-aryloxypyri(mi)dines” (BASF Aktiengesellschaft, priority 1999, dated 2003).

System: Stellaria media
Experiment: Post-emergence test
Assay type: in vivo
Conditions: 2-4 weeks after treatment
Method: To evaluate their herbicidal activity, compounds according to the invention are tested using a representative range of plants: STEME Stellaria media [table] […] These acetone solutions are diluted with water and the resulting formulations applied at dosage levels equivalent of about 0.1 to 0. 4 kg per hectare of test compound per pot. After spraying the plants are placed on greenhouse benches and are cared for in the usual manner, commensurate with conventional greenhouse practices. From 2 to 4 weeks after treatment, the seedling plants are examined and rated according to the rating system provided above.

`Cc1cnc(-c2cc(C(F)(F)F)nn2C)nc1Oc1cc(C(F)(F)F)nn1C` [Example 4, 2-(1-Methyl-3-trifluoromethylpyrazol-5-yl)-6-(1-methyl-3-trifluoromethylpyrazol-5-yloxy)-5-methylpyrimidine] was tested, and the STEME herbicidal rating (0.1 kg/ha) was 5 (5 - Definite injury) and the STEME herbicidal rating (0.4 kg/ha) was 6 (6 - Herbicidal effect).
